According to patent US9458499B2, “Nucleic acid binding dyes and uses therefor” (PROMEGA CORPORATION, priority 2009, dated 2016):
Counter-ions that a name gives are not always drawn.

Key:
Format in all cases: physicochemical
dsDNA = test: Quantum yield, absorbance and emission of dyes with dsDNA; details: for Em λ (ds DNA): Example 1; for absorbance λEx dsDNA / emission λmaxEM dsDNA: Table 1
ds DNA = test: Relative brightness of stains with ds DNA (protocol of Nygren et al.)
Method: (§1) The relative brightness of certain compounds (Table 2) was determined based on the protocol in Nygren, J., Svanvik, N., Kubista, M. (1998) Biopolymers, Vol. 46, 39-51, which is incorporated by reference herein.

ss DNA = test: Relative brightness of stains with ss DNA (protocol of Nygren et al.)
Method: as §1

SMILES | Em λ (ds DNA) (dsDNA) | quantum yield (Φ) dsDNA (dsDNA) | absorbance λEx dsDNA (dsDNA) | emission λmaxEM dsDNA (dsDNA) | Relative Brightness ds DNA (ds DNA) | Relative Brightness ss DNA (ss DNA)
CN(C)CCCN(CCCN(C)C)C1=C/C(=C\c2sc3cccc4c3[n+]2CCC4)c2ccccc2N1c1ccccc1 [PBI 3646, 1-((2-(Bis(3-(dimethylamino)propyl)amino)-1-phenylquinolin-4(1H)-ylidene)methyl)-7,8-dihydro-6H-thiazolo[5,4,3-ij]quinolin-9-ium] | 531 nm | 0.43 | 504 nm | 531 |  | 
CCCN(CCCN(C)C)c1cc(/C=C2/Sc3ccccc3N2C)c2ccccc2[n+]1-c1ccccc1 [SYBR Green 1, reference compound] |  |  |  |  | 1 | 
COc1ccc2c(/C=C3\Sc4cccc5c4N3CCC5)cc(N(CCC[N+](C)(C)C)CCC[N+](C)(C)C)[n+](C)c2c1 [PBI 4052, 2-(bis(3-(trimethylammonio)propyl)amino)-4-((5,6-dihydrothiazolo[5,4,3-ij]quinolin-2(4H)-ylidene)methyl)-7-methoxy-1-methylquinolinium] |  |  |  |  | 0.74 | 2.41
CN(C)CCN(Cc1ccccc1)c1cc(/C=C2/Sc3cccc4c3N2CCC4)c2ccccc2[n+]1-c1ccccc1 [PBI 3666, 2-(benzyl(2-(dimethylamino)ethyl)amino)-4-((5,6-dihydrothiazolo[5,4,3-ij]quinolin-2(4H)-ylidene)methyl)-1-phenylquinolinium trifluoroacetate] |  | 0.34 | 494 nm | 535 |  | 
CCCN(CCC[N+](C)(C)C)c1cc(/C=C2\Sc3cccc4c3N2CCC4)c2ccc(OC)cc2[n+]1C [compound 4053, 4-((5,6-dihydrothiazolo[5,4,3-ij]quinolin-2(4H)-ylidene)methyl)-7-methoxy-1-methyl-2-(propyl(3-(trimethylammonio)propyl)amino)quinolinium] |  |  |  |  | 1.26 | 1.82
CCCN(CCCN(C)C)C1=C/C(=C\c2sc3cccc4c3[n+]2CCC4)c2ccccc2N1c1ccccc1 [PBI 3654, 1-((2-((3-(Dimethylamino)propyl)(propyl)amino)-1-phenylquinolin-4(1H)-ylidene)methyl)-7,8-dihydro-6H-thiazolo[5,4,3-ij]quinolin-9-ium] | 529 nm | 0.70 | 498 nm | 529 |  | 
COc1ccc2c(/C=C3\Sc4cccc5c4N3CCC5)cc(N(C)C)[n+](Cc3ccccc3)c2c1 [PBI 4051, 1-benzyl-4-((5,6-dihydrothiazolo[5,4,3-ij]quinolin-2(4H)-ylidene)methyl)-2-(dimethylamino)-7-methoxyquinolinium] |  |  |  |  | 0.67 | 1.10
CCCN(CCC[N+](C)(C)C)c1cc(/C=C2\Sc3cccc4c3N2CCC4)c2ccc(OC)cc2[n+]1-c1ccccc1 [PBI 4054, 4-((5,6-dihydrothiazolo[5,4,3-ij]quinolin-2(4H)-ylidene)methyl)-7-methoxy-1-phenyl-2-(propyl(3-(trimethylammonio)propyl)amino)quinolinium] |  |  |  |  | 1.19 | 3.10
COc1ccc2c(/C=C3\Sc4cccc5c4N3CCC5)cc(N(CCC[N+](C)(C)C)CCC[N+](C)(C)C)[n+](Cc3ccccc3)c2c1 [PBI 4050, 1-Benzyl-2-(bis(3-(trimethylammonio)propyl)amino)-4-((5,6-dihydrothiazolo[5,4,3-ij]quinolin-2(4H)-ylidene)methyl)-7-methoxyquinolinium] |  |  |  |  | 0.63 | 1.23

Further lines, with some results ahead:

Em λ (ds DNA) (dsDNA) | quantum yield (Φ) dsDNA (dsDNA) | absorbance λEx dsDNA (dsDNA) | emission λmaxEM dsDNA (dsDNA) | SMILES | Relative Brightness ds DNA (ds DNA) | Relative Brightness ss DNA (ss DNA)
529 nm | 0.2 | 504 nm | 529 | CN1C=C/C(=C\c2sc3cccc4c3[n+]2CCC4)c2ccccc21 [compound 3632, 1-((1-Methylquinolin-4(1H)-ylidene)methyl)-7,8-dihydro-6H-thiazolo[5,4,3-ij]quinolin-9-ium] |  | 
535 nm | 0.31 | 503 nm | 535 | CN(C)CCCN(CCCN(C)C)C1=C/C(=C\c2sc3cccc4c3[n+]2CCC4)c2ccccc2N1CCCc1ccccc1 [PBI 3675, 1-((2-(bis(3-(dimethylamino)propyl)amino)-1-(3-phenylpropyl)quinolin-4(1H)-ylidene)methyl)-7,8-dihydro-6H-thiazolo[5,4,3-ij]quinolin-9-ium] |  | 
 | 0.68 | 494 nm | 529 | CCCN(CCCN(C)C)c1cc(/C=C2\Sc3cccc4c3N2CCC4)c2ccccc2[n+]1C [PBI 3678, 1-methyl-4-((5,6-dihydrothiazolo[5,4,3-ij]quinolin-2(4H)-ylidene)methyl)-2-((3-(dimethylamino)propyl)(propyl)amino)quinolinium trifluoroacetate] |  | 
 | 0.48 | 494 nm | 527 | CCN(CC)c1cc(/C=C2\Sc3cccc4c3N2CCC4)c2ccccc2[n+]1-c1ccccc1 [PBI 3676, 2-(diethylamino)-4-((5,6-dihydrothiazolo[5,4,3-ij]quinolin-2(4H)-ylidene)methyl)-1-phenylquinolinium trifluoroacetate] |  | 
533 nm | 0.34 | 499 nm | 533 | CCCN(CCCN(C)C)c1cc(/C=C2/Sc3cccc4c3N2CCC4)c2ccccc2[n+]1CCCc1ccccc1 [PBI 3679, 4-((5,6-Dihydrothiazolo[5,4,3-ij]quinolin-2(4H)-ylidene)methyl)-2-((3-(dimethylamino)propyl)(propyl)amino)-1-(3-phenylpropyl)quinolinium] |  | 
 | 0.68 | 494 nm | 529 | CCCCN(CCCN(C)C)c1cc(/C=C2/Sc3cccc4c3N2CCC4)c2ccccc2[n+]1-c1ccccc1 [PBI 3667, 2-(butyl(3-(dimethylamino)propyl)amino)-4-((5,6-dihydrothiazolo[5,4,3-ij]quinolin-2(4H)-ylidene)methyl)-1-phenylquinolinium trifluoroacetate] |  | 
529 nm | 0.39 | 466 nm | 529 | CN(C)CCN(C)C1=C/C(=C\c2sc3cccc4c3[n+]2CCC4)c2ccccc2N1c1ccccc1 [compound 3568, 1-((2-((2-(Dimethylamino)ethyl)(methyl)amino)-1-phenylquinolin-4(1H)-ylidene)methyl)-7,8-dihydro-6H-thiazolo[5,4,3-ij]quinolin-9-ium] |  | 
 | 0.72 | 494 nm | 533 | CCCN(CCCN(C)C)c1cc(/C=C2\Sc3cccc4c3N2CCC4)c2ccccc2[n+]1Cc1ccccc1 [PBI 3677, 1-benzyl-4-((5,6-dihydrothiazolo[5,4,3-ij]quinolin-2(4H)-ylidene)methyl)-2-((3-(dimethylamino)propyl)(propyl)amino)quinolinium trifluoroacetate] |  | 
